In patent US6468729B2, “Silver halide photographic light-sensitive material” (Fuji Photo Film Co., Ltd., priority 2000, dated 2002):

Assay: pKa measurement by titration (AT-210 device, neutralization middle point)
Format: physicochemical
Conditions: —NHSO2— dissociation group, 25° C., THF/H2O=6/4
Procedure: The measurement of the pKa value in the present invention will be described below. […] 20 mL of H2O were then added to completely dissolve the material. Subsequently, 0.25 mL of an aqueous 0.2 N hydrochloric acid solution was added, and the resultant solution was stirred. An aqueous 0.2 N NaOH solution was dropped into this solution, and the pKa value was obtained from the neutralization middle point. All pKa values in the present invention were obtained under the above measurement conditions.

Row | pKa value | Compound
1 | more than 12 | CCCCCCCCOc1ccc(NS(=O)(=O)c2cc(C(C)(C)CC(C)(C)C)ccc2OCCCCCCCC)cc1S(=O)(=O)NCC(C)c1n[nH]c2c(Cl)c(C(C)(C)C)nn12 (centres unmarked) [Compound G-6]
2 | more than 12 | CCCCCCCCCCCCC(Oc1ccc(NS(=O)(=O)c2ccc(S(N)(=O)=O)cc2)cc1)c1n[nH]c2c(Cl)c(C)nn12 (centres unmarked) [Compound G-7]
3 | more than 12 | CCCCCCCCCCCCCCCCCCOc1ccc(C(C)(C)C)cc1S(=O)(=O)NC(C)c1n[nH]c2cc(C(C)(C)C)nn12 (centres unmarked) [Compound G-1]
4 | more than 12 | CCCCCCCCOc1ccc(C(C)(C)CC(C)(C)C)cc1S(=O)(=O)Nc1ccc(OCCOC)c(S(=O)(=O)NC(C)(C)c2n[nH]c3c(Cl)c(C(C)(C)C)nn23)c1 [Compound G-5]
5 | more than 12 | CCCCCCCCCCCCCCCC(C(=O)O)C(=O)Nc1cccc(C(=O)Nc2ccc(CCCc3n[nH]c4cc(C(C)(C)C)nn34)cc2)c1 (centres unmarked) [Compound G-2]
6 | more than 12 | CCCCCCCCOc1ccc(NS(=O)(=O)c2cc(C(C)(C)CC(C)(C)C)ccc2OCCCCCCCC)cc1S(=O)(=O)NCC(C)c1n[nH]c2cc(CC)nn12 (centres unmarked) [Compound G-9]
7 | more than 12 | CCCCCCCCOc1ccc(NS(=O)(=O)c2cc(C(C)(C)CC(C)(C)C)ccc2OCCOc2ccc(C)cc2)cc1S(=O)(=O)NC(C)c1n[nH]c2cc(C(C)(C)C)nn12 (centres unmarked) [Compound G-4]
8 | more than 12 | CCCCCCCCOc1ccc(C(C)(C)CC(C)(C)C)cc1S(=O)(=O)Nc1cc(S(=O)(=O)Nc2c(C)cc(C)c(-c3n[nH]c4cc(CC)nn34)c2C)ccc1Cl [Compound G-3]
